Test results: patent publication US11123316B2, “Imaging composition and uses thereof” (The University of Melbourne, priority 2014, dated 2021)

Assay: Competition Study 2: ZrCl4(THF)2 added to mixture of DFOPhSO3H and DFOSqTaur, ESI-MS
Format: binding
Conditions: 50° C., 7 hours, FIG. 46
Protocol: A 3 mM stock solution of each ligand, DFOPhSO3H and DFOSqTaur, was prepared in a mixture of H2O and MeOH (concentrations were confirmed prior to dilution by UV-Vis Fe^3+ titration in H2O, 430 nm). A mixture of both solutions (25 uL each) was mixed thoroughly and heated to 50° C. A stock solution of ZrCl4(THF)2 in H2O/MeOH (3 mM) was also prepared, and 20 uL of this was added to the ligand mixture. The mixture was incubated at 50° C. for 7 hours.

CC(=O)N(O)CCCCCNC(=O)CCC(=O)N(O)CCCCCNC(=O)CCC(=O)N(O)CCCCCNc1c(NCCS(=O)(=O)O)c(=O)c1=O [DFOSqTaur]
Zr complex found in competition with DFOPhSO3H: presence of the ZrDFOSqTaur complex
